Earlier results as cited in patent publication US8137579B2, “Non-aqueous heat transfer fluid and use thereof” (priority 1993, dated 2012).
Read-outs that look alike come from different tables or passages of the source.

Experiments:
[1] = laboratory rats, single dose, acute oral

In the case of `OCCOCCO` [Diethylene glycol], the LD50 rating (laboratory rats; [1]) is given as 16600 mg/kg.
In the case of `OCCO` [EG, ethylene glycol], the LD50 rating (laboratory rats; [1]) is listed as 6100 mg/kg and the “toxic level to humans, reported as low as” value (humans) is listed as 0.398 g/kg.
For `CC(O)CO` (stereo not drawn) [PG, propylene glycol], the LD50 rating (laboratory rats; [1]) is listed as 33700 mg/kg.
In the case of `OCCOCCOCCO` [triethylene glycol], the LD50 rating (laboratory rats; rat, in vivo, po) is listed as 22000 mg/kg.
In the case of `CC(O)COC(C)COC(C)CO` (stereo not drawn) [tripropylene glycol], the LD50 rating (laboratory rats; rat, in vivo, po) is given as 3000 mg/kg.
